# Assay results published in patent publication US20250366474A1, “USE OF 4,5-DIMETHYLTHIAZOLE IN PROMOTING PLANT GROWTH” (HUAZHONG AGRICULTURAL UNIVERSITY, priority 2024, published 2025).
# Test system: hydroponic rice seedlings
# Test: Addition of 4,5-dimethylthiazole to hydroponic rice: growth, agronomic traits and nitrogen accumulation
# Type: in vivo, indica (Heliangyou 332) and japonica (Nipponbare)
# Conditions: for Dry Matter Mass of Rice, Root System / Dry Matter Mass of Rice, Shoot Part / Dry Matter Mass of Rice, Total / Leaf Area / Leaf Length / Leaf Width / Plant Height / Total Root Count: 25 days of cultivation
# Protocol: Five addition concentrations of 4,5-dimethylthiazole (CAS No. 3581-91-7, see FIG. 1 for structural formula) were set, being 0, 5, 10, 20 and 50 mg/L, respectively, and a solvent was a rice nutrient solution. Two rice varieties were indica (Heliangyou 332) and japonica (Nipponbare), respectively. The rice was subjected to normal seed soaking, sowing and cultivation. When grown to one leaf and one tiller, rice seedlings were cultivated with mixed solution. Samples were collected after 25 days of cultivation. 30 plants were sampled from each treatment, where 15 plants were divided into two parts of stems and leaves, and root system, which were dried and weighed, and the other 15 plants were measured for agronomic traits.
smiles,measurement,setting,value
"Cc1ncsc1C [4,5-dimethylthiazole]","Dry Matter Mass of Rice, Root System",5 mg/L,3.1 mg/plant
same,"Dry Matter Mass of Rice, Shoot Part",5 mg/L,17.0 mg/plant
same,"Dry Matter Mass of Rice, Total",5 mg/L,20.1 mg/plant
same,Leaf Area,5 mg/L,3.39 cm^2
same,Leaf Length,5 mg/L,10.73 cm
same,Leaf Width,5 mg/L,0.38 cm
same,Plant Height,5 mg/L,16.73 cm
same,Total Root Count,5 mg/L,8.0 count/plant
same,"Dry Matter Mass of Rice, Root System",10 mg/L,4.0 mg/plant
same,"Dry Matter Mass of Rice, Shoot Part",10 mg/L,24.3 mg/plant
same,"Dry Matter Mass of Rice, Total",10 mg/L,28.3 mg/plant
same,Leaf Area,10 mg/L,3.03 cm^2
same,Leaf Length,10 mg/L,10.88 cm
same,Leaf Width,10 mg/L,0.34 cm
same,Plant Height,10 mg/L,16.97 cm
same,Total Root Count,10 mg/L,8.0 count/plant
same,"Dry Matter Mass of Rice, Root System",20 mg/L,3.8 mg/plant
same,"Dry Matter Mass of Rice, Shoot Part",20 mg/L,22.0 mg/plant
same,"Dry Matter Mass of Rice, Total",20 mg/L,25.8 mg/plant
same,Leaf Area,20 mg/L,3.16 cm^2
same,Leaf Length,20 mg/L,11.08 cm
same,Leaf Width,20 mg/L,0.34 cm
same,Plant Height,20 mg/L,16.13 cm
same,Total Root Count,20 mg/L,8.7 count/plant
same,"Dry Matter Mass of Rice, Root System",50 mg/L,3.0 mg/plant
same,"Dry Matter Mass of Rice, Shoot Part",50 mg/L,19.7 mg/plant
same,"Dry Matter Mass of Rice, Total",50 mg/L,22.7 mg/plant
same,Leaf Area,50 mg/L,3.01 cm^2
same,Leaf Length,50 mg/L,9.23 cm
same,Leaf Width,50 mg/L,0.39 cm
same,Plant Height,50 mg/L,14.15 cm
same,Total Root Count,50 mg/L,9.3 count/plant
same,increase of leaf area,"5-50 mg/L, average",59.6%
same,increase of leaf length,"5-50 mg/L, average",33.9%
same,increase of leaf width,"5-50 mg/L, average",19.6%
same,increase of rice plant height,"5-50 mg/L, average",31.5%
same,increase of total root count,"5-50 mg/L, average",47.8%
